Species on record: Rattus norvegicus
Assay: Open TG-GATES - Regimen: Single
Format: toxicity, organism-based, Sprague-Dawley
Design: regimen Single, gender Male, age 6 weeks
Conditions: in vivo, po, route gavage; for gamma-GTP / ALP / ALT / AST / BUN / CRE / Ca / Cl / DBIL / GLC / IP / K / LDH / Na / PL / RALB / TBIL / TC / TG / TP: tissue Plasma; for APTT / Bas / Eos / Fbg / Hb / Ht / Lym / MCH / MCHC / Mono / Neu / Plat / RBC / Ret / WBC: tissue Blood; for KIDNEY_L / KIDNEY_R / KIDNEY_TOTAL: tissue Kidney; for LIVER: tissue Liver
[1] = 10 mg/kg, 3 h, dose level Middle
[2] = 10 mg/kg, 6 h, dose level Middle
[3] = 10 mg/kg, 9 h, dose level Middle
[4] = 10 mg/kg, 24 h, dose level Middle
[5] = 30 mg/kg, 24 h, dose level High

## O=C(CCCN1CCC(O)(c2ccc(Cl)cc2)CC1)c1ccc(F)cc1 [HALOPERIDOL]
3 mg/kg, 24 h, dose level Low
  gamma-GTP: 1.6 IU/L
[1]
  TERMINAL_BW: 204.5 g
  APTT: 17.3 s
  Bas: 0%
  Eos: 0.4%
  Fbg: 202.4 mg/dL
  Hb: 13.2 g/dL
  Ht: 39.7%
  Lym: 71.2%
  MCH: 22 pg
  MCHC: 33.1%
  Mono: 12%
  Neu: 16.4%
  Plat: 97.9 x10_4/uL
  RBC: 598.8 x10_4/ul
  Ret: 8.8%
  WBC: 87.7 x10_2/uL
  KIDNEY_L: 0.9 g
  KIDNEY_R: 1 g
  KIDNEY_TOTAL: 1.9 g
  LIVER: 9.9 g
  ALP: 802.2 IU/L
  ALT: 36 IU/L
  AST: 59.8 IU/L
  BUN: 11.6 mg/dL
  CRE: 0.6 mg/dL
  Ca: 10.8 mg/dL
  Cl: 107 meq/L
  DBIL: 0.02 mg/dL
  GLC: 216.2 mg/dL
  IP: 10.1 mg/dL
  K: 4.5 meq/L
  LDH: 107.4 IU/L
  Na: 140 meq/L
  PL: 141.2 mg/dL
  RALB: 3.5 g/dL
  TBIL: 0.3 mg/dL
  TC: 80.8 mg/dL
  TG: 30 mg/dL
  TP: 5.5 g/dL
  gamma-GTP: 1.2 IU/L
[2]
  TERMINAL_BW: 201.2 g
  APTT: 16.6 s
  Bas: 0%
  Eos: 0.8%
  Fbg: 201.2 mg/dL
  Hb: 13.8 g/dL
  Ht: 41.9%
  Lym: 69.8%
  MCH: 21.6 pg
  MCHC: 32.9%
  Mono: 5.5%
  Neu: 24%
  Plat: 99.7 x10_4/uL
  RBC: 637.2 x10_4/ul
  Ret: 8.6%
  WBC: 75.3 x10_2/uL
  KIDNEY_L: 0.9 g
  KIDNEY_R: 1 g
  KIDNEY_TOTAL: 1.9 g
  LIVER: 8.9 g
  ALP: 922.8 IU/L
  ALT: 31.8 IU/L
  AST: 56.5 IU/L
  BUN: 8.8 mg/dL
  CRE: 0.4 mg/dL
  Ca: 10.4 mg/dL
  Cl: 107.2 meq/L
  DBIL: 0.025 mg/dL
  GLC: 189.2 mg/dL
  IP: 10.2 mg/dL
  K: 4.7 meq/L
  LDH: 111 IU/L
  Na: 139.5 meq/L
  PL: 130.5 mg/dL
  RALB: 3.5 g/dL
  TBIL: 0.4 mg/dL
  TC: 75.2 mg/dL
  TG: 29.5 mg/dL
  TP: 5.5 g/dL
  gamma-GTP: 1.2 IU/L
[3]
  TERMINAL_BW: 195.8 g
  APTT: 17 s
  Bas: 0%
  Eos: 0.4%
  Fbg: 210 mg/dL
  Hb: 13.9 g/dL
  Ht: 41.8%
  Lym: 75.8%
  MCH: 21.8 pg
  MCHC: 33.4%
  Mono: 7.8%
  Neu: 16%
  Plat: 101.8 x10_4/uL
  RBC: 641.2 x10_4/ul
  Ret: 8.6%
  WBC: 63.2 x10_2/uL
  KIDNEY_L: 0.9 g
  KIDNEY_R: 0.9 g
  KIDNEY_TOTAL: 1.7 g
  LIVER: 8.4 g
  ALP: 812.8 IU/L
  ALT: 27.8 IU/L
  AST: 53.8 IU/L
  BUN: 9.2 mg/dL
  CRE: 0.6 mg/dL
  Ca: 10.1 mg/dL
  Cl: 107 meq/L
  DBIL: 0.024 mg/dL
  GLC: 200.2 mg/dL
  IP: 11.1 mg/dL
  K: 4.6 meq/L
  LDH: 100 IU/L
  Na: 139.6 meq/L
  PL: 134.2 mg/dL
  RALB: 3.7 g/dL
  TBIL: 0.4 mg/dL
  TC: 76.4 mg/dL
  TG: 25.8 mg/dL
  TP: 5.5 g/dL
  gamma-GTP: 2.6 IU/L
[4]
  TERMINAL_BW: 213.1 g
  APTT: 16.2 s
  Bas: 0%
  Eos: 1.2%
  Fbg: 193.4 mg/dL
  Hb: 14.2 g/dL
  Ht: 42.4%
  Lym: 82%
  MCH: 21.9 pg
  MCHC: 33.5%
  Mono: 6.8%
  Neu: 10%
  Plat: 114.7 x10_4/uL
  RBC: 648 x10_4/ul
  Ret: 8.2%
  WBC: 76.5 x10_2/uL
  KIDNEY_L: 1 g
  KIDNEY_R: 0.9 g
  KIDNEY_TOTAL: 1.9 g
  LIVER: 10.5 g
  ALP: 1019.6 IU/L
  ALT: 32.6 IU/L
  AST: 62.2 IU/L
  BUN: 23.8 mg/dL
  CRE: 0.5 mg/dL
  Ca: 11.2 mg/dL
  Cl: 104.6 meq/L
  DBIL: 0.034 mg/dL
  GLC: 182.4 mg/dL
  IP: 8.2 mg/dL
  K: 5 meq/L
  LDH: 102.4 IU/L
  Na: 140 meq/L
  PL: 160.2 mg/dL
  RALB: 3.9 g/dL
  TBIL: 0.3 mg/dL
  TC: 79.8 mg/dL
  TP: 6 g/dL
  gamma-GTP: 1 IU/L
30 mg/kg, 3 h, dose level High
  TERMINAL_BW: 205 g
  APTT: 17.2 s
  Bas: 0%
  Eos: 0.2%
  Fbg: 207.6 mg/dL
  Hb: 12.8 g/dL
  Ht: 38.4%
  Lym: 70.4%
  MCH: 21.5 pg
  MCHC: 33.3%
  Mono: 6%
  Neu: 23.4%
  Plat: 97 x10_4/uL
  RBC: 593.6 x10_4/ul
  Ret: 8.9%
  WBC: 57.7 x10_2/uL
  KIDNEY_L: 0.9 g
  KIDNEY_R: 0.9 g
  KIDNEY_TOTAL: 1.9 g
  LIVER: 9.5 g
  ALP: 676.8 IU/L
  ALT: 31.4 IU/L
  AST: 52 IU/L
  BUN: 12.2 mg/dL
  CRE: 0.5 mg/dL
  Ca: 10.7 mg/dL
  Cl: 108.8 meq/L
  DBIL: 0.018 mg/dL
  GLC: 222.8 mg/dL
  IP: 10.5 mg/dL
  K: 4.4 meq/L
  LDH: 166.8 IU/L
  Na: 140.8 meq/L
  PL: 157.6 mg/dL
  RALB: 3.7 g/dL
  TBIL: 0.3 mg/dL
  TC: 92.2 mg/dL
  TG: 34.6 mg/dL
  TP: 5.6 g/dL
  gamma-GTP: 1.4 IU/L
30 mg/kg, 6 h, dose level High
  TERMINAL_BW: 194.4 g
  APTT: 17.2 s
  Bas: 0%
  Eos: 0.4%
  Fbg: 198.5 mg/dL
  Hb: 13.9 g/dL
  Ht: 41.3%
  Lym: 72.6%
  MCH: 21.4 pg
  MCHC: 33.7%
  Mono: 4.4%
  Neu: 22.6%
  Plat: 110.6 x10_4/uL
  RBC: 647.2 x10_4/ul
  Ret: 9.3%
  WBC: 75.5 x10_2/uL
  KIDNEY_L: 0.9 g
  KIDNEY_R: 0.9 g
  KIDNEY_TOTAL: 1.8 g
  LIVER: 8.9 g
  ALP: 742.6 IU/L
  ALT: 30.6 IU/L
  AST: 59.8 IU/L
  BUN: 9.2 mg/dL
  CRE: 0.5 mg/dL
  Ca: 10.1 mg/dL
  Cl: 108.2 meq/L
  DBIL: 0.036 mg/dL
  GLC: 215.6 mg/dL
  IP: 10.1 mg/dL
  K: 4.6 meq/L
  LDH: 179.8 IU/L
  Na: 140 meq/L
  PL: 133.6 mg/dL
  RALB: 3.6 g/dL
  TBIL: 0.3 mg/dL
  TC: 77.8 mg/dL
  TG: 20 mg/dL
  TP: 5.5 g/dL
  gamma-GTP: 1.2 IU/L
30 mg/kg, 9 h, dose level High
  TERMINAL_BW: 194.2 g
  APTT: 16.9 s
  Bas: 0%
  Eos: 1.4%
  Fbg: 216 mg/dL
  Hb: 13.6 g/dL
  Ht: 40.7%
  Lym: 69%
  MCH: 21.9 pg
  MCHC: 33.4%
  Mono: 5.6%
  Neu: 24%
  Plat: 104 x10_4/uL
  RBC: 623 x10_4/ul
  Ret: 8.6%
  WBC: 59.3 x10_2/uL
  KIDNEY_L: 0.9 g
  KIDNEY_R: 0.9 g
  KIDNEY_TOTAL: 1.8 g
  LIVER: 8.3 g
  ALP: 898.8 IU/L
  ALT: 26.8 IU/L
  AST: 53.2 IU/L
  BUN: 10.8 mg/dL
  CRE: 0.5 mg/dL
  Ca: 9.9 mg/dL
  Cl: 108.8 meq/L
  DBIL: 0.012 mg/dL
  GLC: 201.2 mg/dL
  IP: 10.8 mg/dL
  K: 4.8 meq/L
  LDH: 180.8 IU/L
  Na: 140.6 meq/L
  PL: 137.2 mg/dL
  RALB: 3.9 g/dL
  TBIL: 0.3 mg/dL
  TC: 75.8 mg/dL
  TG: 21.4 mg/dL
  TP: 5.6 g/dL
  gamma-GTP: 1.2 IU/L
[5]
  TERMINAL_BW: 194.5 g
  APTT: 15.2 s
  Bas: 0%
  Eos: 0.6%
  Fbg: 200.2 mg/dL
  Hb: 14.5 g/dL
  Ht: 43.1%
  Lym: 80.8%
  MCH: 21.4 pg
  MCHC: 33.7%
  Mono: 5.8%
  Neu: 12.8%
  Plat: 118.2 x10_4/uL
  RBC: 680 x10_4/ul
  Ret: 7.7%
  WBC: 59.7 x10_2/uL
  KIDNEY_L: 0.9 g
  KIDNEY_R: 0.9 g
  KIDNEY_TOTAL: 1.8 g
  LIVER: 8.9 g
  ALP: 744.8 IU/L
  ALT: 30.2 IU/L
  AST: 67.8 IU/L
  BUN: 28.6 mg/dL
  CRE: 0.5 mg/dL
  Ca: 11 mg/dL
  Cl: 105 meq/L
  DBIL: 0.044 mg/dL
  GLC: 181 mg/dL
  IP: 9.7 mg/dL
  K: 5.3 meq/L
  LDH: 216.4 IU/L
  Na: 140 meq/L
  PL: 142.8 mg/dL
  RALB: 4.1 g/dL
  TBIL: 0.4 mg/dL
  TC: 77 mg/dL
  TG: 95 mg/dL
  TP: 6.1 g/dL
  gamma-GTP: 1 IU/L
